Experiments:
pMLKL, MLKL, ICAD = assay: Western blot analysis of infected skin; format: in vivo, mice
mouse neutrophils = assay: Neutrophil cultures with live S. aureus ± caspase inhibitors; conditions: Q-VD-OPH 10 μg/mL, live S. aureus 6 hours
[1] = test system: mouse epithelial keratinocytes; assay: Mouse epithelial keratinocyte culture (qRT-PCR, immunoblot)
Staphopain B (sspB) = molecular target: T1, Staphopain B (sspB) (Staphylococcus aureus, UniProt P0C1S6); assay: Protease activity assays and protein blot, Staphopain B; format: biochemical, S. aureus
T1 construct: purchased CUSABIO
T1 sequence (P0C1S6 220-393): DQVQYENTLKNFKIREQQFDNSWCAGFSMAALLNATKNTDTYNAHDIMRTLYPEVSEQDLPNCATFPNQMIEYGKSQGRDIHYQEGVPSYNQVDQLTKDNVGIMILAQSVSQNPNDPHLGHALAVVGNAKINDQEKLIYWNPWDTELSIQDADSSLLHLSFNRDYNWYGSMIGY

IL-1β = assay: Serum IL-1β levels after S. aureus skin inoculation; format: in vivo, mice; conditions: days 1 and 3
Protocol: Serum IL-1β and TNF levels. Serum IL-1β and TNF protein levels (pg/mL) were measured from serum collected on days 1 and 3 after S. aureus skin inoculation±Q-VD-OPH treatment using Bio-Plex protein assays and normalized to total protein, according to the manufacturer's recommendations (Bio-Rad).

[2] = test system: P. aeruginosa strain Xen41; assay: P. aeruginosa skin infection model; format: in vivo; conditions: WT C57BL/6 mice; treatment at 4 hours; vs untreated
neogenic hair follicles = assay: Wound Induced Hair Neogenesis (WIHN) assay; format: in vivo, mice
Protocol: Wound Induced Hair Neogenesis (WIHN) Assay. All in vivo experimental surgical procedures were performed as previously characterized ^1,2,6-8. In short, after exposure to vaporizing anesthesia (Baxter, Isoflurane) the dorsal side of male and female 3-week-old (21 days) mice were shaved at approximately 8-10 g of weight. Using surgical scissors, approximately 1.26 cm^2×1.25 cm^2 of skin was excised creating wounds deep into the fascia. At 3 days post-wounding, a single dose (50 μl) of 100 μg/mL high molecular weight (HMW) polyinosinic-polycytidylic acid (Poly (I:C)) (Invivogen, tlrl-pic) was administered underneath the scab site via injection in both wild-type and transgenic mice as previously described^2,8. For functional experiments characterizing IL-36 on WIHN, a single dose (50 μl) of 1 μg/mL recombinant mouse IL-36α protein (R&D Systems, 7059-ML/CF) was injected underneath the scab site at 7 days post-wounding. For rescue experiments using the small molecule, broad spectrum pan-caspase inhibitor, 20 ul of 5 mg/mL Q-VD-OPh (in DMSO) was diluted 130 μL of phosphate-buffered saline (PBS) (1.33 mM final concentration) and injected intraperitoneally in mice 24 hours prior to wounding and approximately 10 days after wounding (scab detachment).
Immunofluorescence, immunocytochemistry, and immunohistochemistry.

Streptopain (speB) = Streptopain (speB) (Streptococcus pyogenes, UniProt P0C0J0); format: biochemical, S. pyogenes
Sequence of Streptopain (speB) (P0C0J0 146-398 limits assumed): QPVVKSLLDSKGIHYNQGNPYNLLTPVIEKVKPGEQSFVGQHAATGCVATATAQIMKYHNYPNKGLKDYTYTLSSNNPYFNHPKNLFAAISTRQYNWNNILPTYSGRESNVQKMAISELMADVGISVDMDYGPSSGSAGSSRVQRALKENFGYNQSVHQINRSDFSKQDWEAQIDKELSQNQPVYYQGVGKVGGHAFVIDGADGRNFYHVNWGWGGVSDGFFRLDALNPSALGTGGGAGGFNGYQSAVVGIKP

neutrophils = assay: Flow cytometry of skin of Q-VD-OPh-treated mice; format: in vivo; conditions: Q-VD-OPh i.p.; unwounded skin; vs vehicle controls
Protocol: Flow Cytometry. Cell suspensions were prepared by digesting mouse skin tissue in a cocktail consisting of Liberase TL (Roche, 5401020001), DNase I (Sigma, DN25) and antibiotics (Invitrogen, 15140) in RPMI 1640 (Gibco, 11875093). For FACS, cells were washed and first viability stained using the Zombie Aqua dye (BioLegend, 423101). […] Finally, cells were resuspended in BD stabilizing fixative prior to FACS. All flow cytometry experiments were performed on a BD LSR II and downstream analysis of data was performed using Cytobank.

Staphopain A (sspP) = molecular target: T2, Staphopain A (sspP) (Staphylococcus aureus, UniProt P81297); assay: Protease activity assays and protein blot, Staphopain A; format: biochemical, S. aureus
T2 construct: purchased CUSABIO
T2 sequence (P81297 215-388): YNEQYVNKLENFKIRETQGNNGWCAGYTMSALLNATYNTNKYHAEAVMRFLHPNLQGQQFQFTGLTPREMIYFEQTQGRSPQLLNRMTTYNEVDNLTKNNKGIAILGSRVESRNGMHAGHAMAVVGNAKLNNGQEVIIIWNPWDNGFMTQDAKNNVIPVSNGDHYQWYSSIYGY

S. pyogenes strain Xen20 [3] = format: cell-based; conditions: 10, 100 and 1,000 μg/mL; vs vehicle
BMDMs = assay: BMDM cultures with live S. aureus ± caspase inhibitors; conditions: Q-VD-OPH 10 μg/mL, live S. aureus 6 hours
[4] = test system: monocytes, macrophages and neutrophils isolated from the infected skin; assay: Flow cytometry of single-cell suspensions from CA-MRSA-infected skin; format: in vivo, mice
Protocol: Flow cytometry. 10-mm skin punch biopsies were collected, minced and enzymatically digested in 3 mL RPMI containing 100 μg/mL DNaseI (Sigma-Aldrich) and 1.67 Wunsch U/ml Liberase TL (Roche) for 1 hour at 37° C. and shaken at 140 rpm. Single-cell suspensions were obtained after filtering the digested samples through a 40-μm cell filter using a 3 mL syringe plunger and cells were then washed in RPMI. […] The cells were further labeled for intracellular pMLKL, which was detected via anti-pMLKL mAb that was biotinylated with Biotin conjugation/Fast/Type A kit (Abcam), as per manufacturer's instructions, along with other intracellular mAbs against IL-1β and TNF (Supplemental Table S1). […] For immunophenotyping of Langerhans cells and monocyte-derived dendritic cells (DCs), cells were first gated on CD45^+ and then CD207^+CD103^− (Langerhans cells) and CD45^+CD11c^+CD115^+ monocyte-derived DCs (FIG. 11), modified from previously described methods (61). The absolute numbers of the respective cell populations were calculated as (Total number of live cells X [% of cell population/100]).

[5] = test system: P. aeruginosa strain Xen41; assay: Bacterial growth curve kinetics, P. aeruginosa broth cultures; format: cell-based; conditions: 10, 100 and 1,000 μg/mL; vs vehicle
S. pyogenes strain Xen20 [6] = format: in vivo; conditions: WT C57BL/6 mice; single dose at 4 hours; vs untreated
[7] = Emricasan 9 μg/mL, no significant differences vs no treatment
[8] = Q-VD-OPH treated TNF^−/− mice, day 1
[9] = Q-VD-OPH treated WT mice, day 1
[10] = TNF^−/− mice, day 1, vs untreated
[11] = WT mice, infected skin day 1, vs untreated

**Q.** What does the source list for CC(C)[C@H](NC(=O)c1ccc2ccccc2n1)C(=O)N[C@@H](CC(=O)O)C(=O)COc1c(F)cccc1F [Q-VD-OPH, Quinoline-val-asp-difluorophenoxymethyl ketone]?
**A.** necroptosis (pMLKL and MLKL expression) (pMLKL, MLKL, ICAD; TNF^−/− mice, day 1, vs untreated or Q-VD-OPH treated WT mice): reduced necroptosis; apoptosis (ICAD) (pMLKL, MLKL, ICAD; TNF^−/− mice, infected skin day 1): reduced apoptosis; apoptosis (ICAD) (pMLKL, MLKL, ICAD; WT mice, infected skin day 1): reduced apoptosis; necroptosis (pMLKL, MLKL) (pMLKL, MLKL, ICAD; WT mice, infected skin day 1): increases necroptosis; necroptosis (western blot for pMLKL and MLKL) (mouse neutrophils): necroptosis was increased; percentages of TNF+ neutrophils (mouse neutrophils; Emricasan 9 μg/mL): 25.47%; viable cells (Zombie UV negative cells) (mouse neutrophils; [7]): ~50%; IL-36 receptor (IL36r) expression ([1]; 48 hrs treatment): not detected; IL-36 receptor antagonist (IL-36m) protein or mRNA levels ([1]; 48 hrs treatment): No differences; IL-36α mRNA ([1]; 48 hrs treatment): higher levels of IL-36α mRNA and protein; Tlr3 expression ([1]; 48 hrs treatment): again elevated; caspase gene mRNA (inflammatory caspases 1 and 4) ([1]; 48 hrs treatment): compensatory mRNA increases of caspase genes; IL-36α protein (whole-cell lysates) ([1]; mouse epithelial keratinocytes): higher levels of IL-36α mRNA and protein; physical conformational changes or degradation of sspB (protein blot) (Staphopain B (sspB); 2 hours at 37° C.): did not induce any physical conformational changes or cause degradation; activity of sspB on gelatinase activity or elastin proteolysis (Staphopain B (sspB); Q-VD-OPH 10 μg/mL, 20 hours): did not affect the activity; serum levels of IL-1β (IL-1β): decreased serum levels of IL-1β; bacterial burden (in vivo BLI) [2]: modest but significantly decreased; skin lesion sizes [2]: modest but significantly decreased skin lesion sizes; WIHN (neogenic hair follicles; Il36r^−/− mice treated with Q-VD-OPh): do not; WIHN (neogenic hair follicles; wild-type mice, Q-VD-OPh 1.33 mM i.p. 24 hours prior to and ~10 days after wounding, vs vehicle): more WIHN; IL-36α in the epidermis of re-epithelialized wounds (neogenic hair follicles; wild-type mice, Q-VD-OPh i.p., vs vehicle): higher levels of IL-36α in the epidermis of re-epithelialized wounds; physical conformational changes or degradation of speB (protein blot) (Streptopain (speB); 2 hours at 37° C.): did not induce any physical conformational changes or cause degradation; activity of speB on gelatinase activity or elastin proteolysis (Streptopain (speB); 20 hours): did not affect the activity; neutrophil levels in the skin (neutrophils): higher neutrophil levels in the skin; physical conformational changes or degradation of sspP (protein blot) (Staphopain A (sspP); 2 hours at 37° C.): did not induce any physical conformational changes or cause degradation; activity of sspP on gelatinase activity or elastin proteolysis (Staphopain A (sspP); Q-VD-OPH 10 μg/mL, 20 hours): did not affect the activity; in vitro absorbance and bioluminescence (S. pyogenes strain Xen20 [3]): no differences in in vitro absorbance and bioluminescence; necroptosis (western blot for pMLKL and MLKL) (BMDMs): necroptosis was increased; percentages of TNF+ BMDMs (BMDMs; Emricasan 9 μg/mL): 33.53%; viable cells (Zombie UV negative cells) (BMDMs; [7]): ~80%; pMLKL+ MFI [4, 8]: 540; pMLKL+ total cells, absolute numbers [4, 8]: 1.5×10^4 cells; pMLKL+ total cells, percentage [4, 8]: 15%; pMLKL+ MFI [4, 9]: 2250; pMLKL+ total cells, absolute numbers [4, 9]: 1.0×10^5 cells; pMLKL+ total cells, percentage [4, 9]: 81%; percentages and absolute number of macrophages ([4]; TNF^−/− mice, day 1): statistically increased; percentages and absolute number of monocytes ([4]; TNF^−/− mice, day 1, compared with Q-VD-OPH treated WT mice): no increase; necroptosis (pMLKL+) total leukocytes: MFI, percentages and absolute numbers ([4]; TNF^−/− mice, day 1, vs TNF^−/− untreated): significantly greater; early apoptotic (Annexin V+) neutrophils [4, 10]: significantly decreased; early apoptotic cells (Annexin V+) of total leukocytes [4, 10]: significantly decreased; percentages and absolute number of neutrophils ([4]; TNF^−/− mice, infected skin day 1, vs untreated or Q-VD-OPH treated WT mice): significantly reduced; intracellular pro-IL-1β: MFI and percentages of total leukocytes (CD45+pro-IL-1β+) ([4]; WT mice, day 1, especially macrophages and neutrophils but not monocytes): increased mean fluorescence intensity (MFI) and percentages of total leukocytes; TNF+ macrophages ([4]; WT mice, day 1, vs untreated): significantly greater; TNF+ monocytes ([4]; WT mice, day 1, vs untreated): significantly greater; TNF+ neutrophils ([4]; WT mice, day 1, vs untreated): significantly greater; TNF+ total leukocytes (CD45+TNF+): MFI, percentages and absolute number ([4]; WT mice, day 1, vs untreated): significantly greater; early apoptotic (Annexin V+) monocytes, percentages and absolute numbers ([4]; WT mice, day 1, vs untreated): significantly decreased; early apoptotic (Annexin V+) neutrophils, percentages and absolute numbers ([4]; WT mice, day 1, vs untreated): significantly decreased; early apoptotic cells (Annexin V+) of total leukocytes, percentages and absolute numbers ([4]; WT mice, day 1, vs untreated): significantly decreased; necroptosis (pMLKL+) macrophages ([4]; WT mice, day 1, vs untreated): significantly greater; necroptosis (pMLKL+) total leukocytes: MFI, percentages and absolute numbers ([4]; WT mice, day 1, vs untreated): significantly greater; percentages and absolute numbers of neutrophils [4, 11]: no differences; percentages of macrophages [4, 11]: statistically increased; percentages of monocytes [4, 11]: statistically increased; in vitro absorbance and bioluminescence [5]: no differences in in vitro absorbance and bioluminescence; bacterial burden (in vivo BLI) (S. pyogenes strain Xen20 [6]): rapidly reduced bacterial burden; skin lesion sizes (S. pyogenes strain Xen20 [6]): substantially decreased skin lesion sizes

From patent publication US20240115649A1, “CASPASE INHIBITION TO ENHANCE REGENERATION AND REPAIR AFTER SKIN OR GUT INJURY AND TO TREAT BACTERIAL OR VIRAL INFECTIONS” (The Johns Hopkins University, priority 2020, published 2024)
